# Source: US20140073643A1, “TREATMENT OF JAK2-MEDIATED CONDITIONS” (YM BIOSCIENCES AUSTRALIA PTY LTD, priority 2010, published 2014)
# Marks after values point to notes of the source that are not given here.
# Legend:
# [1] = tested on: patients with high- or intermediate-risk primary myelofibrosis (PMF) and post-PV or post-essential thrombocythemia (ET) myelofibrosis; test: Phase I/II clinical trial of CYT387: toxicity; assay type: in vivo
# Experimental: (§1) A clinical trial was designed to assess the safety, tolerability, and pharmacokinetic behavior of CYT387 in a Phase I dose-escalation study in patients with high- or intermediate-risk primary myelofibrosis (PMF) and post-PV or post-essential thrombocythemia (ET) myelofibrosis. The secondary objective was evaluation of CYT387 's benefit to myelofibrosis patients. CYT387 was administered orally (in a capsule without excipients) once daily in 28-day cycles. For patients achieving less than a complete remission after 3 cycles of treatment, escalation was permitted to the highest tolerated dose in the absence of disease progression or unacceptable toxicity. Once dose-limiting toxicity (DLT) was identified, a dose-confirmation cohort initiated treatment at the maximum tolerated dose (MTD) and/or a lower clinically effective dose.
# (§2) Results were obtained for 36 subjects enrolled in the 120 patient Phase I/II trial for which recruitment is ongoing. Of these, 18 patients were from the dose escalation phase, and 18 patients were from the subsequent dose confirmation phase. Twenty subjects (56%) were red cell transfusion-dependent at study entry. Prior treatment included other JAK inhibitors in ten patients (nine and one subjects with INCB018424 and TG101348, respectively) and pomalidomide in nine patients. The median treatment duration at publication was 15 weeks (range 4-38).
# To date, 36 subjects were evaluable for toxicity. At the highest dose level (400 mg/day), two of six subjects experienced dose limiting toxicity (DLT) (one each with asymptomatic grade three hyperlipasemia and grade three headache that were reversible upon holding drug); consequently, the maximum tolerated dose (MTD) was declared at 300 mg/day. In the dose-confirmation phase, subjects were started at one of two dose levels that were deemed clinically effective: 150 mg/day (n=15) and 300 mg/day (n=3). Thirty-five subjects were on active therapy at publication of the abstract: 100 mg/day (n=2), 150 mg/day (n=20), 300 mg/day (n=10), and 400 mg/day (n=3).
# [2] = tested on: patients with high- or intermediate-risk primary myelofibrosis (PMF) and post-PV or post-essential thrombocythemia (ET) myelofibrosis; test: Phase I/II clinical trial of CYT387: anemia response / hemoglobin; assay type: in vivo, human
# Text: By “anemia response” is meant an increase in the patient's hemoglobin level or a patient who was transfusion dependent becoming transfusion independent. Desirably, a minimum increase in hemoglobin of 2.0 g/dL lasting a minimum of 8 weeks is achieved, which is the level of improvement specified in the International Working Group (IWG) consensus criteria. However, smaller, but still medically significant, increases in hemoglobin are also considered to be within the term “anemia response”.
# as §1, with “CYT387 was administered orally (in a capsule without excipients) once daily in 28-day cycles.” left out
# as §2
# Anemia Response: The total anemia response rate was 63%. Of 22 subjects who were evaluable for anemia response (baseline Hgb<10 g/dL or red cell transfusion-dependent), nine subjects (41%) had achieved “Clinical Improvement (CI)” as per the International Working Group for Myeloproliferative Neoplasms Research and Treatment (IWG-MRT) criteria, including two of four subjects who were previously treated with INCB018424. An additional five subjects experienced a >50% reduction in transfusion requirement.
# There is also a line for “anemia evaluable” patients which are patients who are considered anemic at baseline by IWG criteria. That is they have a baseline hgb of <10 g/dL or are transfusion dependent at baseline.
# [3] = tested on: patients with high- or intermediate-risk primary myelofibrosis (PMF) and post-PV or post-essential thrombocythemia (ET) myelofibrosis; test: Phase I/II clinical trial of CYT387: spleen response; assay type: in vivo, human
# Text: By “spleen response” is meant a reduction in the size of the patient's spleen as assessed by either palpation of a previously palpable spleen during physical exam or by diagnostic imaging. The IWG consensus criteria specifies that there be either a minimum 50% reduction in palpable splenomegaly (spleen enlargement) of a spleen that is at least 10 cm at baseline (prior to treatment) or of a spleen that is palpable at more than 5 cm at baseline becomes not palpable. However, smaller reductions are also considered to be within the term “spleen response”.
# as §1, §2
# Spleen Size Reduction: Twenty nine (97%) of the 30 evaluable subjects who had splenomegaly at baseline (median 20 cm; range 10-32 cm) had some degree of spleen size reduction (median 9 cm; range 2-18 cm). Eleven (37%) patients have achieved a minimum 50% decrease in palpable spleen size, thus qualifying them for a CI per IWG-MRT criteria, including three out of eight subjects (38%) who were previously treated with INCB018424.
# [4] = tested on: patients with high- or intermediate-risk primary myelofibrosis (PMF) and post-PV or post-essential thrombocythemia (ET) myelofibrosis; test: Phase I/II clinical trial of CYT387: constitutional symptoms; assay type: in vivo, human; settings: at last follow up
# Experimental: as §1, §2
# Constitutional symptoms: The proportion of patients with the following symptoms at baseline was as follows: fatigue (97%), pruritus (22%), night sweats (38%), cough (13%), bone pain (28%), and fever (16%). At last follow up, improvement (complete resolution; CR) in these symptoms was reported by 68% (16% CR), 86% (57% CR), 83% (75% CR), 75% (50% CR), 78% (44% CR), and 100% (100% CR), respectively.
# [5] = administered once a day; cited from earlier work
# [6] = Previous Treatment with IMids (Pomalidomide, Thalidomide, Revlimid)
# [7] = Previous Treatment with INCB018424
# [8] = Previous Treatment with TG-101348
# [9] = Previous Treatment with Unspecified JAK2
# [10] = Previous Treatment with any JAK2
# [11] = interim response by diagnosis: PET
# [12] = interim response by diagnosis: PMF
# [13] = interim response by diagnosis: PPV
# [14] = 30 evaluable subjects with splenomegaly at baseline
smiles,measurement,setting,value
"N#CCNC(=O)c1ccc(-c2ccnc(Nc3ccc(N4CCOCC4)cc3)n2)cc1 [CYT387, N-(cyanomethyl)-4-[2-[[4-(4-morpholinyl)phenyl]amino]-4-pyrimidinyl]-benzamide]",Grade 3/4 thrombocytopenia,"[1]; human, in vivo",22%
same,Treatment-emergent grade 3/4 neutropenia,"[1]; human, in vivo",not observed
same,grade 4 non-hematological toxicities,"[1]; human, in vivo",No grade 4 non-hematological toxicities were observed
same,subjects experiencing dose limiting toxicity (DLT),"[1]; human, in vivo",two of six
same,subjects with first-dose effect (grade 1 lightheadedness and hypotension),"[1]; human, in vivo",36%
same,time to resolution of first-dose effect,"[1]; human, in vivo",3 to 4 h
same,tolerability,"[1]; human, in vivo",well tolerated
same,treatment-emergent grade 3 anemia,"[1]; human, in vivo",3%
same,maximum tolerated dose (MTD),[1]; oral once daily,300 mg/day
same,effect on hemoglobin in transfusion dependent patients who respond (Tx responders),"[2]; FIG. 2, no longer receiving RBC transfusions",modest initial increase in hemoglobin that is sustained
same,Anemia response: % responders,[2]; Initial Dose 150 BID,33%*
same,Anemia response: Responders (number),"[2]; Initial Dose 150 BID, 21 evaluable pts",7
same,Anemia response: % responders,[2]; Initial Dose 150 QD,50%
same,Anemia response: Responders (number),"[2]; Initial Dose 150 QD, 32 evaluable pts",16
same,Anemia response: % responders,[2]; Initial Dose 300 QD,54%
same,Anemia response: Responders (number),"[2]; Initial Dose 300 QD, 39 evaluable pts",21
same,"Responders, Anemia",[2]; [6],Anemia: 9/14 = 64.3%
same,"Responders, Anemia",[2]; [7],Anemia: 4/7 = 57.1%
same,"Responders, Anemia",[2]; [8],Anemia: 3/4 = 75%
same,"Responders, Anemia",[2]; [9],Anemia: 2/3 = 66.7%
same,"Responders, Anemia",[2]; [10],Anemia: 9/14 = 64.3%
same,effect on hemoglobin levels,"[2]; first 60 patients, FIG. 1 and 2",clear and sustained improvement in hemoglobin levels
same,Anemia Response/Evaluable,[2]; [11],10/18 (55.6%)
same,Anemia Response/Evaluable,[2]; [12],30/66 (45.5%)
same,Anemia Response/Evaluable,[2]; [13],6/14 (42.9%)
same,subjects achieving Clinical Improvement (CI) in anemia per IWG-MRT criteria,[2]; nine of 22 evaluable subjects (baseline Hgb<10 g/dL or red cell transfusion-dependent),41%
same,additional subjects with >50% reduction in transfusion requirement,[2]; of 22 evaluable subjects,five
same,total anemia response rate,"[2]; oral once daily, 28-day cycles, 22 subjects evaluable for anemia response",63%
same,subjects achieving anemia CI per IWG-MRT among those previously treated with INCB018424,[2]; previously treated with INCB018424,two of four
same,subjects with some degree of spleen size reduction,[3]; 29 of 30 evaluable subjects with splenomegaly at baseline (median 20 cm),97%
same,"spleen size reduction, median",[3]; [14],9 cm
same,"spleen size reduction, range",[3]; [14],2-18 cm
same,"Responders, Spleen",[3]; [6],Spleen: 6/11 = 54.5%
same,"Responders, Spleen",[3]; [7],Spleen: 3/10 = 30%
same,"Responders, Spleen",[3]; [8],Spleen: 1/4 = 25%
same,"Responders, Spleen",[3]; [9],Spleen: 1/3 = 33.3%
same,"Responders, Spleen",[3]; [10],Spleen: 5/17 = 29.4%
same,patients with minimum 50% decrease in palpable spleen size (CI per IWG-MRT),[3]; eleven of 30 evaluable,37%
same,Spleen Response/Evaluable,[3]; [11],7/19 (36.8%)
same,Spleen Response/Evaluable,[3]; [12],22/82 (26.8%)
same,Spleen Response/Evaluable,[3]; [13],11/33 (33.3%)
same,"patients with minimum 50% decrease in palpable spleen size (CI per IWG-MRT), previously treated with INCB018424",[3]; three out of eight subjects previously treated with INCB018424,38%
same,complete resolution (CR) of bone pain,[4],44%
same,complete resolution (CR) of cough,[4],50%
same,complete resolution (CR) of fatigue,[4],16%
same,complete resolution (CR) of fever,[4],100%
same,complete resolution (CR) of night sweats,[4],75%
same,complete resolution (CR) of pruritus,[4],57%
same,improvement in bone pain,[4],78%
same,improvement in cough,[4],75%
same,improvement in fever,[4],100%
same,improvement in night sweats,[4],83%
same,improvement in pruritus,[4],86%
same,improvement in fatigue,[4]; patients with symptom at baseline,68%
Cc1cnc(Nc2ccc(OCCN3CCCC3)cc2)nc1Nc1cccc(S(=O)(=O)NC(C)(C)C)c1 [TG101348],maximum tolerated dose (MTD),[5],680 mg/day
